Measured values published in patent publication US20140045807A2, “THE USE OF 3-METHOXY-PREGNENOLONE FOR THE PREPARATION OF A DRUG FOR TREATING A TRAUMATIC BRAIN INJURY” (priority 2004, published 2014).

Experiments:
CHI traumatized animals = assay: MRI of ventricular dilatation after Closed Head Injury (CHI); format: in vivo, rat; conditions: 20 mg/kg starting 24 hours post-trauma, day 28, compared to the vehicle
Experimental: FIG. 17: Ventricular dilatation of Control animals injected with sesame oil (Control) and CHI traumatized animals injected with sesame oil (CHI-D0), or MAP4343 at 10 mg/kg (CHI-D1) or 20 mg/kg (CHI-D2) at day 28 post-trauma. (A) Representative MRI images.
The model “Closed Head Injury” (CHI), also commonly known as “weight-drop”, “impact-acceleration” or Marmarou model, allows the induction of TBI on a closed skull and generates diffuse axonal injuries (Holtzer et al 2001). After anesthesia induction, the scalp was incised, a piece of metal (diameter […], height 3 mm)—designed to protect against skull fracture—was glued to the skull, between the lambda and bregma. The animal was then placed on a foam bed and a cylindrical metallic 230-g weight was dropped from 2 m through a metal tubing onto the disk. At the very moment of the impact, the head of the animal plunged briefly in the foam bed, which leads to an acceleration/deceleration of the brain inside the skull. […]
MRI imaging of rats was performed at day 28 post-trauma. Based on MRI imaging, ventricular dilatation induced by CHI trauma was analyzed in CHI traumatized rats injected from 24 hours post-trauma with sesame oil (CHI-D0), or 3-methoxy-PREG (MAP4343) at 10 mg/kg (CHI-D1) or 20 mg/kg (CHI-D2).

[1] = target: Mineralocorticoid Receptor (MR) (Rattus norvegicus, UniProt P22199); assay: Radioligand binding assay, MR; conditions: MAP4343 10 μM; 4.5 nM [^3H] D-Aldosterone; Wistar Rat kidney
Experimental: Binding affinity of 3-methoxy-PREG (MAP4343) for receptors of steroid hormones was evaluated using radioligand binding assays.

[2] = tested on: spinal cord compression in rats; assay: Spinal cord compression model, locomotor recovery (BBB score); format: in vivo, rat; conditions: 12 mg/kg/day subcutaneous for 2 weeks; as of post-operation day 7
Experimental: FIG. 7: Effect of molecule 43B on locomotor recovery following spinal cord compression in rats. Animal locomotion was evaluated in a blind format during the 1-28 day post-operative period using the BBB score which evaluates the degree of paralysis (higher values correspond to better recovery). Statistical significance: * indicates p<0.001; ** indicates p<0.0001.
To determine the neuroprotective effects of the molecules tested, a spinal cord compression model is used. This model involves the total paralysis of the animals in the first few days following the operation. This period of paralysis is followed of a phase of approximately three weeks during which the animals partially recover their motor function. The study of this recovery using a simple and precise functional test based on observation of the animals (the BBB score) makes it possible to study the speed and the degree of recovery of the animals, with and without treatment.
Two groups of rats were subjected to spinal cord compression. Then, daily for 2 weeks, the animals received a subcutaneous injection containing either sesame oil alone (control group, n=20), or sesame oil containing molecule 43B (43B group, n=20; 12 mg/kg/day). The first injection was given minutes after spinal cord compression. Locomotion of the animals, using BBB scores, was evaluated in a blind format on post-operation days 1, 4, 7, 14, 21, and 28. […]

PC12 cell line = assay: Cellular toxicity test; format: cell-based, rat; conditions: concentrations as high as solubility limits (approximately 50 μM)
Experimental: Cellular toxicity tests are carried out routinely on the PC12 cell line.

[3] = tested on: Sprague Dawley rats, recognition memory; assay: Novel object recognition test (NOR); format: in vivo, rat
Experimental: FIG. 14: 3-methoxy-PREG (43B) enhanced retention of recognition memory in naïve animals and recovered recognition memory deficits in social isolated rats. (A) Sesame Oil treated rats cannot discriminate between the novel and the familiar object following a 4 h inter trial interval (ITI) time. In contrast, 43B (10 mg/kg subcutaneously) treated rats retain the ability to discriminate between the novel and the familiar object. Mean±SEM, n=11-12 per group. ***p<0.001 vs sesame oil (T-test). (B) Isolated animals treated with sesame oil cannot discriminate between the novel and the familiar object following […], while grouped (control) rats clearly discriminate. […]
Cognitive dysfunction, including impaired recognition memory, are common features in depressed patients (Egeland et al., Scand. J. Psychol. 2005). […] Recognition memory was assessed using the NOR test which is a two-trial test of recognition memory based on the spontaneous preference of rats for novelty (Ennaceur and Delacour, Behav. Brain. Res. 1988; Bianchi et al., EJN 2006). […] The ability of the animals to discriminate between the novel and the familiar object is then expressed as: D2-INDEX: [novel object (sec)-familiar object (sec)]/[novel object (sec)+familiar object (sec)] […]

Sequence of Mineralocorticoid Receptor (MR) (P22199 whole entry): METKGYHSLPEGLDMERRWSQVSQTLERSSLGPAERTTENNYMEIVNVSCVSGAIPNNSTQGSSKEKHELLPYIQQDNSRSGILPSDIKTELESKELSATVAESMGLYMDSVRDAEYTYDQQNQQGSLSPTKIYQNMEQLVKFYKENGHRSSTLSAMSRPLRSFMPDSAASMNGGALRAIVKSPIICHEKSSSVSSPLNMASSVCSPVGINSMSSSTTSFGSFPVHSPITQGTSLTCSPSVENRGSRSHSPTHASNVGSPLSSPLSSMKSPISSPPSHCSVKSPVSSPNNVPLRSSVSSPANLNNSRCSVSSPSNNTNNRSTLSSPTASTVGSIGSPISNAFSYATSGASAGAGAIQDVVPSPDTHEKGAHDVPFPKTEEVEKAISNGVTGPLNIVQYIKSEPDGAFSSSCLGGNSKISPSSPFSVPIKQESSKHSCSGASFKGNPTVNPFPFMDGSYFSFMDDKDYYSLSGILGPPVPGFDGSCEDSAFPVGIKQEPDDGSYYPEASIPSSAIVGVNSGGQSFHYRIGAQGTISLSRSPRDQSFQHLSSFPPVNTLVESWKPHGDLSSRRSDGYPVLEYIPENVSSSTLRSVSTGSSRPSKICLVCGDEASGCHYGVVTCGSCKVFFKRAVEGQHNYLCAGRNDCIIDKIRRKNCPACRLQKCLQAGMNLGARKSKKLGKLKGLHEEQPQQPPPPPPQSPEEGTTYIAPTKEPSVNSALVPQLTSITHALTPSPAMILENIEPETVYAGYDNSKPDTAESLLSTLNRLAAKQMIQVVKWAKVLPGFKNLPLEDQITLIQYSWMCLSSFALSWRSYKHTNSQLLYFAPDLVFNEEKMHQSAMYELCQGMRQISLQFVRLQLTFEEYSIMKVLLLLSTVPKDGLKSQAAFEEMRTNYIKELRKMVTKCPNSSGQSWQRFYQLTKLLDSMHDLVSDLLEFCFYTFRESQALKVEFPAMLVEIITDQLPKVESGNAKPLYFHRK

`CO[C@H]1CC[C@@]2(C)C(=CC[C@H]3[C@@H]4CC[C@H](C(C)=O)[C@@]4(C)CC[C@@H]32)C1` [3-methoxy-PREG, 3β-methoxy-pregna-5-ene-20-one] was tested, and the “ventricular dilatation (ventricles area, MRI)” value (CHI traumatized animals) was “significantly decreases the ventricular dilatation”, the “% inhibition of specific binding” value [1] was less than 25% and the “BBB score (locomotion)” value [2] was “quite significantly higher than the control animals”. For the same compound, the cellular toxicity (PC12 cell line) was “do not demonstrate toxicity”, the “discrimination of novel and familiar object, social isolated rats” value ([3]; 10 mg/kg subcutaneously 1 h before task, ITI of 1 h) was “efficiently discriminated between the familiar and the novel object” and the “discrimination of novel and familiar object, naïve animals” value ([3]; 10 mg/kg subcutaneously immediately after T1, ITI of 4 h) was “discriminated between the novel and the familiar object”.
